Experimental data as given in patent US5041542A, “Substituted pyrimido[5,4-d]pyrimidine nucleosides” (Nucleic Acid Research Institute, priority 1988, dated 1991).
Values after ≈ are worked out from the molar mass of the structure shown. Read-outs that look alike come from different tables or passages of the source.

Experiments:
[1] = tested on: herpes simplex virus type 2 (MS strain); assay: In vitro antiviral activity, herpes simplex virus type 2 (virus rating); assay type: cell-based; conditions: Vero cells; VR >1.0 marked, 0.5 to 0.9 moderate, <0.5 weak or no activity
L1210 cells = assay: In vitro cytotoxicity, L1210; assay type: cell-based, murine; conditions: Mus musculus, L1210, 72 h; 3 days, 37° C., MTT; read-out: Antitumor (ID50) L1210
Protocol: (§1) ^b (ID50) inhibitory dose is the μM concentration of the
(§2) In vitro cytotoxicity analysis was performed by using the following cell lines: L1210 (a murine leukemia), WI-L2 (a human B-lymphoblast), and LoVo/L (a human colon carcinoma). Cells were grown in RPMI 1640 medium supplemented with 10% fetal bovine serum, 20 mM HEPES, pH 7.4, and 2 mM glutamine. The cytotoxicity determinations were carried out in 96-well microtiter dishes containing a starting number of 5-10×10^3 cells per well and 0.1-100 μM concentrations of the compounds in triplicate wells. L1210 and WI-L2 were incubated with the compounds at 37° C. for 3 days, while Lovo/L was incubated for 5 days. After this time period, 25 μL of 4 mg/mL 3-(4,5-dimethylthiazol-2-yl)-2,5-diphenyltetrazolium bromide was added to each well and incubation was continued for 2 to 5 h. The formazan product was dissolved in isopropanol containing 0.04M HCl and the absorbance was determined with a microtiter plate reader. The absorbance was proportional to the number of cells.

[2] = Lethal toxicity in treated mice
[3] = tested on: de novo purine biosynthesis in WI-L2 cells; assay: Inhibition of de novo purine biosynthesis ([14C]formate incorporation); assay type: cell-based, human; conditions: for minimal effective concentration: active at concentrations as low as, read-out: lowest active concentration, de novo purine biosynthesis; for activity at 0.25 µM / activity at 2.5 µM: pre-incubation 8 h; for inhibitory activity on de novo purine biosynthesis (ranking): WI-L2 cells
Protocol: (§3) Compounds of the invention were also tested for certain biochemical properties. Compounds of the invention were studied for their effect on de novo purine biosynthesis by observing inhibition of incorporation of [^14 C]formate into the acid-soluble fraction of WI-L2 cells (see Table 3). […] However, 8 and 14 (100 μM) were not cytotoxic to WI-L2 cells deficient in adenosine kinase activity.
(§4) A normal lymphoblast phenotype B cell line, WI-L2 was used. The enzyme-deficient cell lines used in vitro are: HPRT-, a hypoxanthine-guanine phosphorbosyl transferase (EC 2.4.2.8)deficient line and AK-, an adenosine kinase (EC 2.7.1.20)deficient line. Cells were cultured in RPMI 1640 medium containing 5% dialyzed fetal bovine serum, 20 mM Na HEPES, pH 7.5 and 2 mM glutamine and maintained in log phase growth between 0.5 and 12×10^5 cells/mL. The mutant cell lines were periodically reselected by treatment with 6-thioguanine (HPRT-) or tubercidin (AK-).
. Inhibition of de novo purine biosynthesis: WI-L2 or adenosine kinase-deficient cells were preincubated at 37° C. with drug for various time periods prior to labeling with [^14 C]formate. Enzyme Assays: Adenosine kinase inhibition studies were accomplished by the filter binding assay method. Inhibition studies were done at 37° C. with an assay mixture containing 4 mM ATP, 1.5 mM MgCl2, 5 or 10 μM [8-^14 C] adenosine (50 mCi/mmol) and 100 mM Tris-maleate, pH 5.5. To prevent the enzymatic breakdown of adenosine, erythro-9-(2-hydroxy-3-nonyl)adenine (EHNA) was added to the cell-free WI-L2 lysate to give 5 μM final assay concentration. The assay was started by the addition of protein. The amount of enzyme, time of assay and sampling volume were adjusted to give acceptable conversion of [8-^14 C] adenosine to [8-^14 C]AMP. Each DE-81 filter was spotted with a constant sampling volume and immersed in H 2 O (4 L) to terminate the reaction. Filters were washed three times with H2 O (4 L) and once with EtOH (100 mL). Dry filters were placed in scintillation vials and radioactivity was counted with 10 mL toluene-based scintillation cocktail.
De novo purine biosynthesis was measured by the incorporation of ^14 C-formate into cellular purine nucleotides or excreted purines after pre-incubation with compound.

in vitro = assay type: biochemical; conditions: adenosine deaminase, pH 7.5
Protocol: (§5) Samples were analyzed directly on reverse-phase HPLC. Enzymatic conversions were distinguished from hydrolysis by treating a parallel sample with EHNA to inhibit the deaminase activity.

adenosine deaminase = assay: in vitro; assay type: biochemical; conditions: compared with ARPP
Protocol: as §5

physchem = conditions: water
[4] = delivered at 0.01 ml/g mouse weight
WI-L2 cells = assay: In vitro cytotoxicity, WI-L2; assay type: cell-based; conditions: Homo sapiens, WIL2, 72 h; 3 days, 37° C., MTT; read-out: Antitumor (ID50) WI-L2
Protocol: as §1, §2

L1210 = assay: In vivo antitumor activity against L1210 in BDF1 mice
Protocol: Compounds 8, 11, 14 and 17 were comparatively evaluated in vivo for efficacy against L1210 in BDF1 mice.
Mice were inoculated i.p. with 1×10^6 L1210 cells 24 hr before qd, day 1, i.p. drug delivery. Drugs were solubilized in water and delivered at the rate of 0.01 ml/g mouse weight. Then control mice/drug were injected i.p. with equivalent volumes of a 0.9% solution of NaCl, the means and standard deviations reflecting the postinoculation life spans of these mice ranged from 6.30±0.48 to 6.60±0.97 days.

[5] = tested on: WI-L2 cells deficient in adenosine kinase; assay: Cytotoxicity to WI-L2 cells deficient in adenosine kinase activity; assay type: cell-based, human; conditions: 100 μM
Protocol: as §3, §4

[6] = tested on: parainfluenza 3 (C243 strain); assay: In vitro antiviral activity, parainfluenza 3 (virus rating); assay type: cell-based; conditions: Vero cells; VR >1.0 marked, 0.5 to 0.9 moderate, <0.5 weak or no activity
[7] = tested on: pyrimidine (CTP + UTP) and purine (ATP + GTP) nucleoside triphosphates; assay: 14C-bicarbonate incorporation into acid soluble pyrimidine and purine nucleoside triphosphates; assay type: cell-based
From the text: Comparative effect of compounds on ^14 C-bicarbonate
incorporation into acid soluble pyrimidine (PyrTP,
CTP + UTP) and purine (PurTP, ATP + GTP) nucleoside

[8] = tested on: vaccinia virus (Elstree strain); assay type: cell-based; conditions: HeLa cells; VR >1.0 marked, 0.5 to 0.9 moderate, <0.5 weak or no activity
LoVo/L cells = assay: In vitro cytotoxicity, LoVo/L; assay type: cell-based; conditions: Homo sapiens, 120 h, 5 days, 37° C., MTT, read-out: Antitumor (ID50) LoVo/L
Protocol: as §1, §2

[9] = Homo sapiens, WIL2, cell, read-out: de novo purine biosynthesis, % of control, cell, 0.25 μM
[10] = Homo sapiens, WIL2, cell, read-out: de novo purine biosynthesis, % of control, cell, 2.5 μM
[11] = Homo sapiens, WIL2, media (excreted purines), read-out: de novo purine biosynthesis, % of control, media, 0.25 μM
[12] = Homo sapiens, WIL2, media (excreted purines), read-out: de novo purine biosynthesis, % of control, media, 2.5 μM

Row | Compound | Antiviral (VR) HSV2 [1] | IC50 (L1210 cells) | lethal toxicity at maximum soluble dosage ([2]; i.p.) | effect on de novo purine biosynthesis [3] | minimal effective concentration ([3]; Homo sapiens, WIL2) | activity at 0.25 µM [3, 9] | activity at 2.5 µM [3, 10] | activity at 0.25 µM [3, 11] | activity at 2.5 µM [3, 12] | inhibitory activity on de novo purine biosynthesis (ranking) [3] | substrate activity for adenosine deaminase (adenosine deaminase) | solubility (physchem) | Maximum watersoluble dosage [4] | IC50 (WI-L2 cells) | cytotoxicity to adenosine kinase-deficient WI-L2 cells [5] | Antiviral (VR) PI3 [6] | Antiviral (VR) VV [8] | IC50 (LoVo/L cells) | other results
1 | Nc1ncnc2c(N[C@@H]3O[C@H](CO)[C@@H](O)[C@H]3O)ncnc12 [Compound 8, 4-Amino-8-(β-D-ribofuranosylamino)pyrimido[5,4-d]pyrimidine, reference compound] | 0.8 VR | 800 nM | Neither drug was lethally toxic at its maximum soluble dosage | inhibit an early step in de novo purine biosynthesis | 0.25 µM | 79.5% | 29.9% | 71.9% | 54.6% | greatest inhibitory activity | preferential disappearance of the β-anomer | 17.3 mg/mL (≈ 58.8 mM) | 173 mg/kg/inj. | 200 nM | not cytotoxic | 0.7 VR | 1.3 VR | 7000 nM | metabolised at 5 min, 1000 µM (in vitro; 5 min, β-anomer, read-out: conversion of β-anomer by adenosine deaminase in 5 min): 60%; Postinoculation Lifespan (% T/C), 173 mg/kg/inj. (L1210; 173 mg/kg/inj. i.p., qd, day 1): 162 % T/C; T/C (L1210; qd, day 1, at maximum soluble dosage): 162; CAA (carbamyl aspartate), 1.5 μM ([7]; 1.5 μM): 1608 cpm/10^6 cells; PurTP, 1.5 μM ([7]; 1.5 μM, zero = undetectable): 0 cpm/10^6 cells; PyrTP, 1.5 μM ([7]; 1.5 μM, zero = undetectable): 0 cpm/10^6 cells; activity at 1.5 µM ([7]; 1.5 μM, zero = undetectable, read-out: PurTP, % control, 1.5 μM): 0%; activity at 1.5 µM ([7]; read-out: PydTP, % control, 1.5 μM): 0%
2 | COc1ncnc2c(N[C@@H]3O[C@H](CO)[C@@H](O)[C@H]3O)ncnc12 [Compound 14, 4-Methoxy-8-(β-D-ribofuranosylamino)pyrimido[5,4-d]pyrimidine] | 0.2 VR | 40 nM | lethally toxic at that level for all treated mice | inhibit an early step in de novo purine biosynthesis | 0.25 µM | 41.9% | 2.7% | 63% | 41.8% | greatest inhibitory activity | less active as a substrate for adenosine deaminase | 17.3 mg/mL (≈ 55.9 mM) | 173 mg/kg/inj. | 60 nM | not cytotoxic | 0.7 VR | 1.0 VR | 280 nM | maximum non-lethal concentration ([2]; i.p., qd day 1): 6.2 mg/mL; death of treated mice at 10.4 mg/mL ([2]; made up at 10.4 mg/mL): 1/6; activity at 25 µM ([3]; Homo sapiens, WIL2, cell, 25 μM, pre-incubation 4 h, read-out: de novo purine biosynthesis, % of control, cell, 25 μM): 4.3%; metabolised at 18 h, 1000 µM (in vitro; 18 h, same conditions as for ARPP, read-out: deaminated by adenosine deaminase in 18 h): < 10%; T/C, 62 mg/kg (L1210; 62 mg/kg, qd day 1): 182; Postinoculation Lifespan (% T/C), 62 mg/kg/inj. (L1210; 62 mg/kg/inj. i.p., qd, day 1): 182 % T/C; CAA (carbamyl aspartate), 5.0 μM ([7]; 5.0 μM): 1322 cpm/10^6 cells; PurTP, 5.0 μM ([7]; 5.0 μM, zero = undetectable): 0 cpm/10^6 cells; PyrTP, 5.0 μM ([7]; 5.0 μM, zero = undetectable): 0 cpm/10^6 cells; activity at 5 µM ([7]; 5.0 μM, zero = undetectable, read-out: PurTP, % control, 5.0 μM): 0%; activity at 5 µM ([7]; 5.0 μM, zero = undetectable, read-out: PydTP, % control, 5.0 μM): 0%
